Results taken from ChEMBL document CHEMBL3091390, “Novel Mps1 kinase inhibitors: from purine to pyrrolopyrimidine and quinazoline leads” (Bioorg Med Chem Lett, 2013).

Tests used:
[1] = biological target: T1, Dual specificity protein kinase TTK (Homo sapiens, UniProt P33981); experiment: Inhibition of full-length Mps1 kinase (unknown origin)
T1 sequence (P33981 whole entry): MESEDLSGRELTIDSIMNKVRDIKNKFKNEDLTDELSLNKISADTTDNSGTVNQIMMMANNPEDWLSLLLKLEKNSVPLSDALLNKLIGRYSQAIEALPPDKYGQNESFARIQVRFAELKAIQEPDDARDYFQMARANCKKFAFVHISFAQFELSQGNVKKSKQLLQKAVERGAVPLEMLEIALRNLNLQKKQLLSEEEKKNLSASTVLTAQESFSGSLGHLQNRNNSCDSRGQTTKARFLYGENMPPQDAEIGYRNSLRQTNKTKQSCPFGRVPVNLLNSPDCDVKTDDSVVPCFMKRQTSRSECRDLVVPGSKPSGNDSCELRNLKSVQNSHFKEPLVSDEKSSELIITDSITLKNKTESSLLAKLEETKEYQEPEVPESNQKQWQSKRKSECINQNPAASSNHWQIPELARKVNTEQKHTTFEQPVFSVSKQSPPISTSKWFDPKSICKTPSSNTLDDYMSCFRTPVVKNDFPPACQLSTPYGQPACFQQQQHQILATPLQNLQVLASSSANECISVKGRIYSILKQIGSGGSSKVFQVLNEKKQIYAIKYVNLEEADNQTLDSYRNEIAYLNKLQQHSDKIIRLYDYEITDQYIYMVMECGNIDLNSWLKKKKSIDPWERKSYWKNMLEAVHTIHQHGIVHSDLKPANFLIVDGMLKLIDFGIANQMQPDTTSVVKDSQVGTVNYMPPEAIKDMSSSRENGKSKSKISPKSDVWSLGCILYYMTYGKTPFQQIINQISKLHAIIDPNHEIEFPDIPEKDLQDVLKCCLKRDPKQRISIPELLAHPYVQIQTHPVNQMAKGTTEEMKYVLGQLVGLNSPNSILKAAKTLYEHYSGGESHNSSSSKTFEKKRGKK

HCT-116 = experiment: Cytotoxicity against human HCT116 cells; format: functional, cell-based

SMILES | IC50 [1] [nM] | IC50 (HCT-116) [nM]
Cc1cc(N2CCOCC2)ccc1Nc1nc(NC2CCCCC2)c2nc[nH]c2n1 | – | 23
COc1cc(N2CCOCC2)ccc1Nc1ncc2cccc(NC3CCCCC3)c2n1 | 9 | 6320
COc1cc(N2CCOCC2)ccc1Nc1ncc2cccc(-c3ccccc3)c2n1 | 12 | 850
COc1cc(N2CCOCC2)ccc1Nc1ncc2ccn(C3CCCCC3)c2n1 | 46 | 7500
COc1cc(N2CCOCC2)ccc1Nc1ncc2ccc(NC3CCCCC3)cc2n1 | > 100 | –
COc1cc(N2CCN(S(C)(=O)=O)CC2)ccc1Nc1nccc(NC2CCCCC2)n1 | > 100 | –
COc1cc(N2CCN(S(C)(=O)=O)CC2)ccc1Nc1ncc(C)c(NC2CCCCC2)n1 | 28 | 1500
Cc1cc(N2CCOCC2)ccc1Nc1ncc2ccn(C3CCCCC3)c2n1 | 22 | 8600
COc1cc(N2CCOCC2)ccc1Nc1ncc2ccc(-c3ccccc3)cc2n1 | > 100 | –
COc1cc(N2CCN(S(C)(=O)=O)CC2)ccc1Nc1ncc(C)c(N(C)C2CCCCC2)n1 | > 100 | –
COc1cc(N2CCN(S(C)(=O)=O)CC2)ccc1Nc1nccc(N(C)C2CCCCC2)n1 | 35 | 2000

The next lines start with results.

IC50 [1] [nM] | SMILES | IC50 (HCT-116) [nM]
> 100 | COc1cc(N2CCN(S(C)(=O)=O)CC2)ccc1Nc1ncc2ccn(-c3ccccc3)c2n1 | –
5 | COc1cc(N2CCN(S(C)(=O)=O)CC2)ccc1Nc1ncc2cccc(-c3ccccc3)c2n1 | 1740
32 | COc1cc(N2CCN(S(C)(=O)=O)CC2)ccc1Nc1ncc2ccn(-c3ccccn3)c2n1 | 10000
> 100 | COc1cc(N2CCN(S(C)(=O)=O)CC2)ccc1Nc1ncc2ccn(-c3cccnc3)c2n1 | –
20 | COc1cc(N2CCN(S(C)(=O)=O)CC2)ccc1Nc1ncc2ccn(C3CCCCC3)c2n1 | 750
2 | COc1cc(N2CCN(S(C)(=O)=O)CC2)ccc1Nc1ncc2cccc(NC3CCCCC3)c2n1 | 810
8 | COc1cc(N2CCN(S(C)(=O)=O)CC2)ccc1Nc1ncc2cccc(-c3cccnc3)c2n1 | 1580
